Assay: gradient 5% acetonitrile 3 min, to 50% in 2 min, to 85% in 15 min, held 3 min, 100 µL/min
Conditions: column: Zorbax Extend-C18 2.1 x 50 mm; eluents: water / acetonitrile, 0.1% formic acid
Outline: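 Over 3 months, pure standards in mixtures of ~100 molecules were run by HPLC coupled to a quadrupole time-of-flight mass spectrometer in positive and negative ionization mode. The column was a Zorbax Extend-C18 (2.1 × 50 mm, 1.8 μm) at 100 μL/min, eluted with water and acetonitrile each holding 0.1% formic acid, with 40 μL dead and 900 μL dwell volumes. Retention time was determined from adduct peaks chosen by software and checked manually.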

Row | SMILES | RP-LC retention time [s]
1 | CCCN(CC1CCOC1)S(=O)(=O)Cc1ccccc1F (configuration not stated) | 878
2 | COc1ccc(NC(=O)Nc2c(-c3cccc(C)c3)nc3ccccn23)c(OC)c1 | 696
3 | COc1cccc(CNC(=O)c2cc(NC(C)=O)cc3nc(C)ccc23)c1OC | 594
4 | O=C(NC1CCCCCC1)c1ccc(CN2CCN(C3CCCC3)C(=O)C2=O)cc1 | 823
5 | Cc1cc(C)c(CNC(=O)c2nnc(-c3ccc(S(=O)(=O)N(C)C)cc3)o2)c(C)c1 | 1010
6 | CCn1ncc(C(=O)N2CC[C@@H]3CN(S(C)(=O)=O)[C@@H]3C2)c1C | 594
7 | Nc1cc(C2CCN(C(=O)c3ccc(F)c(F)c3)CC2)no1 | 680
8 | N#Cc1cccc(CN2CCCCC2c2nncn2CC2CC2)c1 (configuration not stated) | 618
9 | O=C(Cn1nc(C2CC2)cc1C(=O)N1CCCC1)N1CCN(c2ccc(Cl)cc2)CC1 | 845
10 | CCOC(=O)CNC(=O)Cn1cnc2c(oc3ccccc32)c1=O | 624
11 | CN(C)C[C@@H]1CN(S(C)(=O)=O)C[C@H]1NC(=O)COc1ccc(Cl)cc1 | 629
12 | CCN(c1ccccc1)c1nc(Cl)nc2c1cnn2C | 1070
13 | Cc1cc2c(c(=O)n(-c3ccccc3)c(=O)n2CC(=O)Nc2ccc3c(c2)OCO3)n1C | 760
14 | Nc1cc(C2CCN(C(=O)c3ccc(F)c(Cl)c3)CC2)no1 | 712
15 | COCC(=O)N(C1CCOCC1)C1CCN(S(=O)(=O)c2ccccc2F)CC1 | 740
16 | N#CCN(c1ccc(F)cc1)S(=O)(=O)c1ccc2nncn2c1 | 669
17 | Cc1cc(=O)n(CC(=O)Nc2ccc3c(c2)OCCO3)c(N)n1 | 542
18 | Cc1cc(C(=O)Nc2nnc(-c3ccn(C)n3)o2)c(C)o1 | 617
19 | CCn1nccc1-c1cccc(-c2noc(-c3ccc(F)cc3F)n2)c1 | 1270
20 | CC(C)c1ccc(NC(=O)Cn2cccc2-c2nc(-c3ccc4c(c3)OCO4)no2)cc1 | 1220
21 | O=C1CC(c2nc3ccccc3n2CCN2CCOCC2)CN1Cc1ccccc1 (configuration not stated) | 597

Row | SMILES | RP-LC retention time [s]
22 | COc1ccc(-c2nc3cc(C)ccn3c2NC(=O)c2cc(OC)c(OC)c(OC)c2)cc1 | 664
23 | O=C(NCc1ccc(F)cc1)c1cn2cc(Cl)ccc2n1 | 799
24 | CCC1CCCCN1CCCNC(=O)C1=C(C)C(=O)OC12CCN(C(C)=O)CC2 (configuration not stated) | 565
25 | Cc1ccc(NC(=O)CSc2nccc(N3CCN(c4cc(C)ccc4C)CC3)n2)c(Cl)c1 | 1190
26 | CCN1C(=O)c2cc(C(=O)Nc3ccccc3C)nn2CC1(C)C(=O)NC1CCCC1 (configuration not stated) | 807
27 | CC(=O)c1cccc(NC(=O)N2CCc3cc(-c4ccc(C(=O)N5CCOCC5)cc4)ccc32)c1 | 918
28 | COC[C@@H]1CN(c2cnccn2)C[C@H]1C(=O)NCC#N | 546
29 | CCCC[C@@]1(C2CCCC2)Cc2cc(OCC(=O)O)c(Cl)c(Cl)c2C1=O | 1320
30 | COc1ccc(-c2cc3c(=O)n(Cc4cc(C)ccc4C)ccn3n2)cc1OC | 1010
31 | Cc1nc(Cn2cccc2C(=O)N2CCc3ccccc32)no1 | 885
32 | CCOC(=O)c1noc2ncnc(Nc3cc(C)cc(C)c3)c12 | 1060
33 | CCCN(Cc1ccc(OC)cc1)Cc1cc(=O)n2cccc(C)c2n1 | 644
34 | O=C(Cn1cccc1-c1nnc(C2CC2)o1)Nc1ccc(Cl)cc1F | 908
35 | Cn1cnc([N+](=O)[O-])c1Sc1n[nH]c(N)n1 | 599
36 | Cc1ccc(-c2csc(Nc3ccccc3C)n2)cc1 | 1240
37 | O=C1CN(Cc2ccc(OC(F)(F)F)cc2)C2(CCCC2)CN1 | 682
38 | COCCN1CCC(N2CCCN(C(=O)Cc3c[nH]c4ccccc34)CC2)C1=O (configuration not stated) | 576
39 | O=C(Nc1ccccc1F)N1CC(Oc2cccc(-c3nc(-c4ccccc4)no3)c2)C1 | 1140
40 | CCCCNC(=O)C1CCC(=O)N(c2ccc(OC)cc2)C1c1ccc(OC)cc1 (configuration not stated) | 756
41 | COc1cccc(CCC(=O)N2CCc3nc[nH]c3C2)c1 | 575
42 | CCCCOc1ccc(NC(=O)c2cc(=O)c3cc(CC)ccc3o2)c2cccnc12 | 786

The remaining lines, values ahead:

Row | RP-LC retention time [s] | SMILES
43 | 797 | O=C(NC1CCN(c2cc(-c3cccs3)[nH]n2)C1)c1cc(F)ccc1Cl (configuration not stated)
44 | 810 | COC(=O)CCc1sc(Nc2ccccn2)nc1-c1ccc(OC)cc1
45 | 750 | Cc1ccc(-c2nnc(-c3nc(N4CCCCCC4)c4ccccc4n3)o2)cc1
46 | 944 | Cc1csc(-c2cc(S(=O)(=O)Nc3ccc(F)cc3Cl)cn2CC(=O)N2CCCC2)n1
47 | 643 | Cc1cc(=O)n(CC(=O)Nc2ccccc2F)c(N2CCOCC2)n1
48 | 637 | O=C(c1cnccn1)N1CCCCC1c1nncn1Cc1ccccc1 (configuration not stated)
49 | 660 | O=C(CSc1ccc(N2CCCC(C(=O)NC3CC3)C2)nn1)Nc1cc(F)ccc1Cl (configuration not stated)
50 | 702 | CSc1ccc(CNC(=O)C2CCN(c3cnc4nccnc4c3)CC2)cc1
51 | 836 | CCc1cccc(NC(=O)C2CCCN2S(=O)(=O)c2cc3c(cc2Cl)NC(=O)CO3)c1 (configuration not stated)
52 | 654 | Cc1ccc2c(Nc3cccc(Cl)c3)c(C(=O)N3CCSCC3)cnc2n1
53 | 684 | CCc1ccc2c(c1)-c1ccccc1S(=O)(=O)N2CC(=O)NCc1cccnc1
54 | 829 | Cc1ccc(NC(=O)C2CCCN(S(=O)(=O)c3cn(C(C)C)cn3)C2)cc1C (configuration not stated)
55 | 742 | Cn1c(=O)c2ccnn2c2ccc(C(=O)NC3CCCCC3)cc21
56 | 736 | O=C(NCc1ccc2c(c1)OCO2)C1CCCN(c2cnc3ccccc3n2)C1 (configuration not stated)
57 | 640 | CC(C)CNC(=O)C1CCN(c2nc3ccc(-c4cccnc4)nc3s2)CC1
58 | 638 | CCn1c(N2CCCC(C(=O)NCCN3CCN(c4ccccc4)CC3)C2)cc(=O)n(C)c1=O (configuration not stated)
59 | 723 | O=C(NCc1ccc(F)cc1Cl)C1CCCN(c2ncnc3nn(-c4ccc(F)cc4)cc23)C1 (configuration not stated)
60 | 741 | COc1cc(OC)c(NC(=O)NCC(c2cccnc2)c2cn(C)c3ccccc23)cc1Cl (configuration not stated)
61 | 650 | CCc1nc(N2CCC(C(=O)NCc3ccc(OC)c(OC)c3)CC2)c2c(C)scc2n1
62 | 1150 | CC(C)Cc1noc(C2(F)CCN(S(=O)(=O)c3ccc(F)cc3F)CC2)n1
63 | 975 | CCOC(=O)C1CCC(CNC(=O)Nc2cccc(-c3nnc(-c4ccccc4)o3)c2)CC1 (configuration not stated)
64 | 707 | CC(=O)N1CCc2cc(N3CC(C(=O)NCc4ccccc4C)CC3=O)ccc21 (configuration not stated)
65 | 659 | O=C(Nc1cnc(-c2cccnc2)nc1)C1CCC1
66 | 998 | O=C(Nc1ccc(F)c(Cl)c1)c1cccn1Cc1noc(C2CC2)n1
67 | 665 | CCCNC(=O)C1CCCN(c2ccc(SCC(=O)Nc3cccc(C)c3C)nn2)C1 (configuration not stated)
